# Test system: 883617-216-R-J1-PDC tumor spheroids, viability
# Assay: Anticancer human tumor 883617-216-R-J1-PDC patient-derived bladder carcinoma cell line growth inhibition [PI3K]
# Conditions: spheroids with HUVEC and MSC; for IC50: curve of first compound; for viability, T/C: stronger effect = lower value
# Method in brief: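 Spheroid viability read-out. Co-cultures contained the tumor line plus HUVEC and human MSCs. Each agent was paired with a PI3K inhibitor (inavolisib, alpelisib, duvelisib, copanlisib) across half-log dilutions starting at clinical Cmax, or at 10 microM when Cmax was unknown.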
# 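Further: spheroids exposed to agents for 7 days before the viability read.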
structure (smiles),measurement,setting,value
CNC(=O)c1ccc(N2C(=S)N(c3ccc(C#N)c(C(F)(F)F)c3)C(=O)C2(C)C)cc1F + COc1c(OCCCN2CCOCC2)ccc2c3n(c(=NC(=O)c4cnc(N)nc4)nc12)CCN3,IC50,second compound 0.00316 µM,> 10000 nM
same,IC50,second compound 0.01 µM,> 10000 nM
same,IC50,second compound 0.0316 µM,< 31.6 nM
same,IC50,second compound 0.1 µM,< 31.6 nM
same,IC50,second compound 0.316 µM,< 31.6 nM
same,IC50,second compound 1 µM,< 31.6 nM
same,"viability, T/C","second compound 0.00316 µM, first compound 0.0316 µM",72.6%
same,"viability, T/C","second compound 0.00316 µM, first compound 0.1 µM",79.7%
same,"viability, T/C","second compound 0.00316 µM, first compound 0.316 µM",85.4%
same,"viability, T/C","second compound 0.00316 µM, first compound 1 µM",87.3%
same,"viability, T/C","second compound 0.00316 µM, first compound 3.16 µM",98.2%
same,"viability, T/C","second compound 0.00316 µM, first compound 10 µM",71.9%
same,"viability, T/C","second compound 0.01 µM, first compound 0.0316 µM",61.9%
same,"viability, T/C","second compound 0.01 µM, first compound 0.1 µM",68.4%
same,"viability, T/C","second compound 0.01 µM, first compound 0.316 µM",64.3%
same,"viability, T/C","second compound 0.01 µM, first compound 1 µM",63.4%
same,"viability, T/C","second compound 0.01 µM, first compound 3.16 µM",73.6%
same,"viability, T/C","second compound 0.01 µM, first compound 10 µM",65.6%
same,"viability, T/C","second compound 0.0316 µM, first compound 0.0316 µM",29.5%
same,"viability, T/C","second compound 0.0316 µM, first compound 0.1 µM",39%
same,"viability, T/C","second compound 0.0316 µM, first compound 0.316 µM",47.5%
same,"viability, T/C","second compound 0.0316 µM, first compound 1 µM",37.7%
same,"viability, T/C","second compound 0.0316 µM, first compound 3.16 µM",35.9%
same,"viability, T/C","second compound 0.0316 µM, first compound 10 µM",29%
same,"viability, T/C","second compound 0.1 µM, first compound 0.0316 µM",16.3%
same,"viability, T/C","second compound 0.1 µM, first compound 0.1 µM",15.1%
same,"viability, T/C","second compound 0.1 µM, first compound 0.316 µM",19%
same,"viability, T/C","second compound 0.1 µM, first compound 1 µM",17.3%
same,"viability, T/C","second compound 0.1 µM, first compound 3.16 µM",16.9%
same,"viability, T/C","second compound 0.1 µM, first compound 10 µM",11.9%
same,"viability, T/C","second compound 0.316 µM, first compound 0.0316 µM",10.4%
same,"viability, T/C","second compound 0.316 µM, first compound 0.1 µM",5.99%
same,"viability, T/C","second compound 0.316 µM, first compound 0.316 µM",4.55%
same,"viability, T/C","second compound 0.316 µM, first compound 1 µM",5.36%
same,"viability, T/C","second compound 0.316 µM, first compound 3.16 µM",5.23%
same,"viability, T/C","second compound 0.316 µM, first compound 10 µM",4.37%
same,"viability, T/C","second compound 1 µM, first compound 0.0316 µM",3.25%
same,"viability, T/C","second compound 1 µM, first compound 0.1 µM",3.07%
same,"viability, T/C","second compound 1 µM, first compound 0.316 µM",2.92%
same,"viability, T/C","second compound 1 µM, first compound 1 µM",3.17%
same,"viability, T/C","second compound 1 µM, first compound 3.16 µM",4.14%
same,"viability, T/C","second compound 1 µM, first compound 10 µM",3.08%
Cn1cnc2c(F)c(Nc3ccc(Br)cc3Cl)c(C(=O)NOCCO)cc21 + COc1c(OCCCN2CCOCC2)ccc2c3n(c(=NC(=O)c4cnc(N)nc4)nc12)CCN3,IC50,second compound 0.00316 µM,23.6 nM
same,IC50,second compound 0.01 µM,< 9.49 nM
same,IC50,second compound 0.0316 µM,< 9.49 nM
same,IC50,second compound 0.1 µM,< 9.49 nM
same,IC50,second compound 0.316 µM,< 9.49 nM
same,IC50,second compound 1 µM,< 9.49 nM
same,"viability, T/C","second compound 0.00316 µM, first compound 0.00949 µM",59.8%
same,"viability, T/C","second compound 0.00316 µM, first compound 0.03 µM",43.9%
same,"viability, T/C","second compound 0.00316 µM, first compound 0.0949 µM",37.1%
same,"viability, T/C","second compound 0.00316 µM, first compound 0.3 µM",39.7%
same,"viability, T/C","second compound 0.00316 µM, first compound 0.949 µM",22.8%
same,"viability, T/C","second compound 0.00316 µM, first compound 3 µM",18.9%
same,"viability, T/C","second compound 0.01 µM, first compound 0.00949 µM",44.2%
same,"viability, T/C","second compound 0.01 µM, first compound 0.03 µM",42.5%
same,"viability, T/C","second compound 0.01 µM, first compound 0.0949 µM",27%
same,"viability, T/C","second compound 0.01 µM, first compound 0.3 µM",21.2%
same,"viability, T/C","second compound 0.01 µM, first compound 0.949 µM",22.8%
same,"viability, T/C","second compound 0.01 µM, first compound 3 µM",15.2%
same,"viability, T/C","second compound 0.0316 µM, first compound 0.00949 µM",23.1%
same,"viability, T/C","second compound 0.0316 µM, first compound 0.03 µM",20.8%
same,"viability, T/C","second compound 0.0316 µM, first compound 0.0949 µM",16.4%
same,"viability, T/C","second compound 0.0316 µM, first compound 0.3 µM",14.1%
same,"viability, T/C","second compound 0.0316 µM, first compound 0.949 µM",11.8%
same,"viability, T/C","second compound 0.0316 µM, first compound 3 µM",7.94%
same,"viability, T/C","second compound 0.1 µM, first compound 0.00949 µM",9.95%
same,"viability, T/C","second compound 0.1 µM, first compound 0.03 µM",7.44%
same,"viability, T/C","second compound 0.1 µM, first compound 0.0949 µM",5.9%
same,"viability, T/C","second compound 0.1 µM, first compound 0.3 µM",4.34%
same,"viability, T/C","second compound 0.1 µM, first compound 0.949 µM",3.93%
same,"viability, T/C","second compound 0.1 µM, first compound 3 µM",2.03%
same,"viability, T/C","second compound 0.316 µM, first compound 0.00949 µM",3.44%
same,"viability, T/C","second compound 0.316 µM, first compound 0.03 µM",2.07%
same,"viability, T/C","second compound 0.316 µM, first compound 0.0949 µM",1.3%
same,"viability, T/C","second compound 0.316 µM, first compound 0.3 µM",1.34%
same,"viability, T/C","second compound 0.316 µM, first compound 0.949 µM",0.72%
same,"viability, T/C","second compound 0.316 µM, first compound 3 µM",0.47%
same,"viability, T/C","second compound 1 µM, first compound 0.00949 µM",1.2%
same,"viability, T/C","second compound 1 µM, first compound 0.03 µM",0.53%
same,"viability, T/C","second compound 1 µM, first compound 0.0949 µM",0.38%
same,"viability, T/C","second compound 1 µM, first compound 0.3 µM",0.39%
same,"viability, T/C","second compound 1 µM, first compound 0.949 µM",0.18%
same,"viability, T/C","second compound 1 µM, first compound 3 µM",0.21%

# From PubChem BioAssay AID1963973 (Molecular Pharmacology Branch, DTP, NCI, 2024)
